The nature of assay [1]: Antagonist activity at GP2b/3a receptor in New Zealand rabbit platelet-rich plasma assessed as inhibition of ADP-induced platelet aggregation preincubated for 1 min followed by addition of ADP by aggregometer.
Assay [2] in a line: Antagonist activity at GP2b/3a receptor in New Zealand rabbit platelet-rich plasma assessed as inhibition of thrombin-induced platelet aggregation preincubated for 1 min followed by addition of ADP by aggregometer.
The nature of assay [3]: Antagonist activity at GP2b/3a receptor in New Zealand rabbit platelet-rich plasma assessed as inhibition of collagen-induced platelet aggregation preincubated for 1 min followed by addition of ADP by aggregometer.
The nature of assay [4]: Antagonist activity at GP2b/3a receptor in New Zealand rabbit platelet-rich plasma assessed as inhibition of U46619-induced platelet aggregation preincubated for 1 min followed by addition of ADP by aggregometer.

Each structure is given as a SMILES string. Square brackets hold non-standard residues; d marks the D form. Peptide text beside a SMILES is read from it. pGlu = O=C1CC[C@@H](C(=O)O)N1 Some results are limits rather than exact numbers.

We go through 13 compounds from BindingDB's records for doi:10.1016/j.ejmech.2015.07.016 (China Pharmaceutical University, 2015).

What is called IC50 is the point on the concentration scale where inhibition reaches its midpoint.

Turning to `O=C(O)[C@H](Cc1c[nH]c2ccc(OCCCCC3CCNCC3)cc12)NS(=O)(=O)c1ccccc1`, the 50% inhibitory concentration (IC50) in assay [1] amounted to 95.7 µM.

In the case of `Cc1ccc(S(=O)(=O)N[C@@H](Cc2c[nH]c3ccc(OCCCCC4CCNCC4)cc23)C(=O)O)cc1`, the IC50 in assay [1] amounted to 108 µM.

For `COc1ccc(S(=O)(=O)N[C@@H](Cc2c[nH]c3ccc(OCCCCC4CCNCC4)cc23)C(=O)O)cc1`, the IC50 in assay [1] was more than 500 µM.

Consider `COc1ccc(C(=O)N[C@@H](Cc2c[nH]c3ccc(OCCCCC4CCNCC4)cc23)C(=O)O)cc1`, for which the IC50 in assay [1] is more than 500 µM.

Regarding `O=C(N[C@@H](Cc1c[nH]c2ccc(OCCCCC3CCNCC3)cc12)C(=O)O)c1cccc(F)c1`, the IC50 in assay [1] amounted to 96.1 µM.

Regarding `O=C(O)[C@H](Cc1c[nH]c2ccc(OCCCCC3CCNCC3)cc12)NS(=O)(=O)c1ccc(Br)cc1`, the IC50 in assay [1] is 24.8 µM; in assay [2], 124 µM; in assay [3], 683 µM; in assay [4] it was 590 µM.

For the compound `O=C(N[C@@H](Cc1c[nH]c2ccc(OCCCCC3CCNCC3)cc12)C(=O)O)c1ccc(F)cc1`, the IC50 in assay [1] turned out to be 94.4 µM.

For the compound `O=C(N[C@@H](Cc1c[nH]c2ccc(OCCCCC3CCNCC3)cc12)C(=O)O)c1ccc([N+](=O)[O-])cc1`, the IC50 in assay [1] was 488 µM.

For the compound `O=C(O)[C@H](Cc1c[nH]c2ccc(OCCCCC3CCNCC3)cc12)NS(=O)(=O)c1ccc(F)cc1`, in assay [1], the half-inhibitory concentration (IC50) is 93.1 µM.

Regarding `O=C(O)[C@H](Cc1c[nH]c2ccc(OCCCCC3CCNCC3)cc12)NS(=O)(=O)c1ccc([N+](=O)[O-])cc1`, in assay [1], the IC50 turned out to be 425 µM.

`O=C(N[C@@H](Cc1c[nH]c2ccc(OCCCCC3CCNCC3)cc12)C(=O)O)c1cc(Cl)cc(Cl)c1`: the IC50 in assay [1] was 86.5 µM.

With `O=C(N[C@@H](Cc1c[nH]c2ccc(OCCCCC3CCNCC3)cc12)C(=O)O)c1ccccc1`, in assay [1], the IC50 was more than 500 µM.

Regarding `NC(=O)C[C@H](NC(=O)[C@@H]1CCC(=O)N1)C(=O)N[C@@H](Cc1c[nH]c2ccccc12)C(=O)O` ([pGlu]-Asn-Trp-OH), in assay [1], the IC50 is more than 500 µM.
